# “And” between values parts separate entries of the source, which are not always exact repeats. Equal entries are not always repeated.
# Columns and labels:
# [1] = test system: Daphnia magna; conditions: acute
# [2] = test system: Mus musculus; conditions: chronic
# [3] = test system: Apis mellifera; conditions: acute, mortality
# [4] = test system: Colinus virginianus; conditions: acute; oral; mortality
# [5] = test system: Rattus norvegicus; conditions: for LD50: acute, mortality
# [6] = test system: Canidae
# [7] = test system: Pontoscolex corethrurus; conditions: acute; mortality
# [8] = test system: Sus scrofa; conditions: for LEL: subchronic, diet
# [9] = test system: Homo sapiens; conditions: clinical
# [10] = test system: Gallus gallus; conditions: for LEL: oral, diet
# [11] = test system: Oncorhynchus mykiss; conditions: acute; duration: 96 hours; mortality
smiles,measurement,setting,value
C/C=C/c1ccc(O)c(OC)c1 [Isoeugenol],NOEC,[1],0.4 mg/L
same,LOAEL,"[2]; duration: 2 years, M, histopathology: neoplastic",75 mg/kg-day
CSSC [Methyl disulfide],LD50,[3]; dermal,> 100 µg/piece
same,LD50,[4],342 mg/kg
same,LD50,[5]; oral,> 125 mg/kg
same,NOAEC,"[5]; reproduction developmental, body weight",5 ppm
same,NOAEC,"[5]; reproduction developmental, inhalation, no effects",308 mg/m3
same,NOAEC,"[5]; subchronic, duration: 90 days, inhalation, body weight",77 mg/m3
OC[C@H]1O[C@@H]2O[C@H]3[C@H](O)[C@@H](O)[C@@H](O[C@H]4[C@H](O)[C@@H](O)[C@@H](O[C@H]5[C@H](O)[C@@H](O)[C@@H](O[C@H]6[C@H](O)[C@@H](O)[C@@H](O[C@H]7[C@H](O)[C@@H](O)[C@@H](O[C@H]8[C@H](O)[C@@H](O)[C@@H](O[C@H]1[C@H](O)[C@H]2O)O[C@@H]8CO)O[C@@H]7CO)O[C@@H]6CO)O[C@@H]5CO)O[C@@H]4CO)O[C@@H]3CO [beta-Cyclodextrin],NOAEL,"[6]; chronic, duration: 1 years, Dog Other, clinical chemistry",466 mg/kg-day
same,NOAEL,"[5]; chronic, duration: 6 months, oral, gavage, Long-Evans, body weight",600 mg/kg-day
same,NOAEL,"[5]; chronic, duration: 52 weeks, M/F, Sprague-Dawley, clinical chemistry",654 mg/kg-day
CC1=CC(=O)CC(C)(C)[C@@]1(O)/C=C/C(C)=C\C(=O)O [(+)-(S)-Abscisic acid],LD50,[4],> 2250 mg/kg-day
same,LD50,[5]; oral,> 5000 mg/kg-day
same,NOAEC,"[5]; reproduction developmental, no effects",≥ 1360 mg/kg-day
"O=C1CCSC1 [3(2H)-Thiophenone, dihydro-]",LC50,[7],305 mg/kg
C[N+](C)(C)CC(=O)O.[Cl-] [Betaine hydrochloride],LEL,"[8]; duration: 6 weeks, oral, M/F, Large White x Landrace, clinical chemistry",10000 mg/kg-day
C[C@@H]1O[C@H](O[C@H]2[C@H](O[C@H]3[C@@H](OC[C@H]4O[C@@H](O[C@@H]([C@H](O)[C@@H](O)CO)[C@H](O)CO)[C@H](O)[C@@H](O)[C@@H]4O[C@@H]4O[C@H](CO[C@H]5OC[C@@H](O)[C@H](O)[C@H]5O)[C@@H](O)[C@H](O)[C@H]4O)OC[C@@H](O)[C@@H]3O)O[C@H](CO)[C@H](O)[C@@H]2O)[C@@H](O)[C@H](O)[C@@H]1O,LD50,"[3]; oral, unspecified",> 100 µg/piece
same,LD50,[5]; oral,> 5000 mg/kg-day
[Cu+2].[O-2] [Cupric oxide],NOAEL,"[9]; duration: 12 weeks, oral, M, clinical chemistry",10 mg/day
CN1CCCC1=O [N-Methyl-2-pyrrolidone],NOAEL,"[2]; M/F, B6C3F1, organ weight",90 mg/kg-day
CC1=C(/C=C/C(C)=C/C=C/C(C)=C/C=C/C=C(C)/C=C/C=C(C)/C=C/C2=C(C)CCCC2(C)C)C(C)(C)CCC1 [beta-Carotene],LEL,"[9]; duration: 5 years, no effects",≤ 15 mg/day
COc1nc(NC(=O)NS(=O)(=O)c2ccccc2C(F)(F)F)nc(C(F)(F)F)n1 [Tritosulfuron],NOAEL,"[6]; chronic, duration: 12 months, oral, Dog Other, organ weight",6 mg/kg-day
same,NOAEL,"[6]; subchronic, duration: 90 days, oral, Dog Other",15 mg/kg-day
Cc1cc(OC(C)C)ccc1C(=O)C(C)(C)NC(=O)c1sccc1C [Isofetamid],NOAEL,"[6]; chronic, duration: 1 years, Dog Other, body weight",1.57 mg/kg-day
same,NOAEL,"[6]; subchronic, duration: 90 days, oral, Dog Other, body weight",5.34 mg/kg-day
O=C1OC2(c3ccccc31)c1cc(I)c([O-])c(I)c1Oc1c2cc(I)c([O-])c1I.[Na+].[Na+] [FD&C Red 3],NOAEL,"[6]; chronic, duration: 2 years, oral, diet, M/F, Beagle, clinical chemistry",10000 mg/kg-day
same,NOAEL,"[9]; duration: 14 days, oral, capsule, M, clinical chemistry",1 mg/kg-day
same,NOAEL,"[5]; repeat dose other, oral, diet, other",125 mg/kg-day
O=S(=O)([O-])c1ccc(N=Nc2cc(S(=O)(=O)[O-])c3ccccc3c2O)c2ccccc12.[Na+].[Na+] [Azorubine],NOAEL,[2]; hematological,375 mg/kg-day
same,NOAEL,"[5]; chronic, M/F, body weight",400 mg/kg-day
[Cl-].[Cu+2].[Cu+2].[OH-].[OH-].[OH-] [Dicopper chloride trihydroxide],LEL,"[10]; chronic, duration: 16 weeks, no effects",390 mg/kg-day
same,LEL,"[10]; short-term, duration: 21 days, M/F, food consumption",600 mg/kg-day
same,LEL,"[10]; short-term, duration: 21 days, clinical chemistry",450 mg/kg-day and 300 mg/kg-day
C=C1CC[C@H](O)C/C1=C/C=C1\CCC[C@]2(C)[C@@H]([C@H](C)CCCC(C)(C)O)CC[C@@H]12 [Calcifediol],LEL,"[10]; subchronic, duration: 35 days, M/F, no effects",0.07 mg/kg-day
same,LEL,"[8]; duration: 42 days, oral, Not specified, no effects",0.5 mg/kg-day
CCCCCCCC/C=C\CCCCCCCCCCCC(=O)O [Erucic acid],LOAEL,"[10]; chronic, histopathology: nonneoplastic",20 mg/kg-day
same,NOAEL,"[5]; short-term, duration: 7 days, oral, diet, M, Sprague-Dawley, histopathology: nonneoplastic",700 mg/kg-day
same,NOAEL,"[8]; short-term, duration: 14 days, M/F, Not specified, histopathology: nonneoplastic",700 mg/kg-day
"CC(C)=CCC/C(C)=C/CO [(2E)-3,7-Dimethyl-2,6-octadien-1-ol]",LC50,[11],11.6 mg/L
same,LD50,[5]; oral,3600 mg/kg-day
CC(=O)OC[C@]12CCC(C)=C[C@H]1O[C@@H]1[C@H](O)[C@@H](OC(C)=O)[C@@]2(C)[C@]12CO2 [Diacetoxyscirpenol],LOAEL,"[6]; acute, injection, intravenous, Beagle, hematological",0.031 mg/kg-day
same,LOAEL,"[10]; subchronic, duration: 35 days, M, Chicken, histopathology: neoplastic",0.01 mg/kg-day
same,NOAEL,"[9]; injection, intravenous, hematological",0.065 mg/kg-day
same,NOAEL,"[9]; injection, intravenous, other",0.032 mg/kg-day
same,LOAEL,"[8]; short-term, oral, gavage, Not specified, histopathology: neoplastic",0.08 mg/kg-day

# Source: EPA's ToxValDB 9.5
